Literature values as cited in article PMC11110755, “Structure-based virtual screening of unbiased and RNA-focused libraries to identify new ligands for the HCV IRES model system” (RSC Medicinal Chemistry, 2024).

Tested on: HCV IRES subdomain IIa
Design: method as in PMID 20564282
Conditions: previously reported, Fig. 1; read-out: EC50 (2-AP assay); cited from earlier work

CC(=O)c1ccc(C(=O)N[C@@H](CCCCN)C(=O)N2C[C@H](N)C[C@H](N)C2)cc1 [Compound 3]
EC50: 270 µM
